Source: paper PMC4522657, “Identification of a DYRK1A Inhibitor that Induces Degradation of the Target Kinase using Co-chaperone CDC37 fused with Luciferase nanoKAZ” (Scientific Reports, 2015)

Tests used:
[1] = biological target: T1, TRKA (Homo sapiens, UniProt P04629); assay: Kinase panel, CaNDY 1 µM; type: biochemical; conditions: CaNDY 1 µM relative to DMSO
T1 construct: purchased Carna Biosciences

[2] = test system: mRNA coding for DYRK1A; assay: Reverse transcription and quantitative PCR in HEK293 cells; type: cell-based; conditions: CaNDY 2 µM, four days
Protocol: Total RNA of the cells was isolated using Sepasol-RNA I Super G (Nacalai Tesque), and then subjected to reverse transcription with Prime Script RTase (Takara Bio). Realtime PCR was performed with FastStart Universal SYBR Green Master (Rox) (Roche Diagnostics, Basel, Switzerland) using StepOnePlus Real-Time PCR System (Applied Biosystems, Life technologies). The nucleotide sequences of the primers are as follows: the forward primer for DYRK1A, 5′-[…]-3′; the reverse primer for DYRK1A, 5′-[…]-3′; the forward primer for GAPDH, 5′-[…]-3′; and the reverse primer for GAPDH, 5′-[…]-3′.
(§1) Targeting the DYRK1A/CDC37 complex
Figure S6. Expression of endogenous DYRK1A mRNA in HEK293 cells treated with
HEK293 cells were cultured in the presence of CaNDY (2 µM) for four days, and subjected to
reverse transcription followed by quantitative PCR analysis. Bar graphs show means ± SD (n =
(§2) (1 picture or pasted object on this page, not shown here)

[3] = biological target: T2, PKACα (Homo sapiens, UniProt P17612); assay: Kinase panel, CaNDY 1 µM; type: biochemical; conditions: CaNDY 1 µM relative to DMSO
T2 construct: purchased Carna Biosciences

[4] = biological target: T3, PHKG2 (Homo sapiens, UniProt P15735); assay: Kinase panel, CaNDY 1 µM; type: biochemical; conditions: CaNDY 1 µM relative to DMSO
T3 construct: purchased Carna Biosciences

[5] = biological target: T4, TIE2 (Homo sapiens, UniProt Q02763); assay: Kinase panel, CaNDY 1 µM; type: biochemical; conditions: CaNDY 1 µM relative to DMSO
T4 construct: purchased Carna Biosciences

[6] = biological target: T5, FGFR4(V550L) (Homo sapiens, UniProt P22455, V550L); assay: Kinase panel, CaNDY 1 µM; type: biochemical; conditions: CaNDY 1 µM relative to DMSO
T5 construct: purchased Carna Biosciences

[7] = biological target: T6, MNK2 (Homo sapiens, UniProt Q9HBH9); assay: Kinase panel, CaNDY 1 µM; type: biochemical; conditions: CaNDY 1 µM relative to DMSO
T6 construct: purchased Carna Biosciences
T6 sequence (Q9HBH9 whole entry): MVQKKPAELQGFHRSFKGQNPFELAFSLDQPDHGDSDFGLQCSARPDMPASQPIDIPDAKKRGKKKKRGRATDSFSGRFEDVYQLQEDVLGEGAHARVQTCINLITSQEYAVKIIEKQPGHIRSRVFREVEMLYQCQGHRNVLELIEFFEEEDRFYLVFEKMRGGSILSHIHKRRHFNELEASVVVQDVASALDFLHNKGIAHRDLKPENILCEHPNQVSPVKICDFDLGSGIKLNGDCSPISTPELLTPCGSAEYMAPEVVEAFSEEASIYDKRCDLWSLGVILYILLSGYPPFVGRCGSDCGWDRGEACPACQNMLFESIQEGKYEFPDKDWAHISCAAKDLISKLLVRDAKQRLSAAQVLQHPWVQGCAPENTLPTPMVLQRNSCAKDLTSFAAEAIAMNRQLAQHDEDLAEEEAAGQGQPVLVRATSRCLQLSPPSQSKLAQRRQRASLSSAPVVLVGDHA

[8] = biological target: T7, GSK3α (Homo sapiens, UniProt P49840); assay: Kinase panel, CaNDY 1 µM; type: biochemical; conditions: CaNDY 1 µM relative to DMSO
T7 construct: purchased Carna Biosciences

[9] = biological target: T8, MAP2K6_Cascade (Homo sapiens, UniProt P52564); assay: Kinase panel, CaNDY 1 µM; type: biochemical; conditions: CaNDY 1 µM relative to DMSO
T8 construct: purchased Carna Biosciences

[10] = biological target: T9, CaMK1δ (Homo sapiens, UniProt Q8IU85); assay: Kinase panel, CaNDY 1 µM; type: biochemical; conditions: CaNDY 1 µM relative to DMSO
T9 construct: purchased Carna Biosciences
T9 sequence (Q8IU85 whole entry): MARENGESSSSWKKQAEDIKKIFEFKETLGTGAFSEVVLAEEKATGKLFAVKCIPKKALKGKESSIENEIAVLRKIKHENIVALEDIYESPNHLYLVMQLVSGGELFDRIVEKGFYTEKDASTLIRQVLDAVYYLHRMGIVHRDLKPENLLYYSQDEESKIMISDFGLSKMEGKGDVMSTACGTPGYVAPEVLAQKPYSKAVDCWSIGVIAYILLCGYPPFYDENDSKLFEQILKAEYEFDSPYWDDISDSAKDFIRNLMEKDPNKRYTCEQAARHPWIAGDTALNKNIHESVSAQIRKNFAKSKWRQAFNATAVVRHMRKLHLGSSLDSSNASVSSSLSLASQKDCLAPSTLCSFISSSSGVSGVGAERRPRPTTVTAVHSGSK

[11] = biological target: T10, MLK2_Cascade (Homo sapiens, UniProt Q02779); assay: Kinase panel, CaNDY 1 µM; type: biochemical; conditions: CaNDY 1 µM relative to DMSO
T10 construct: purchased Carna Biosciences

[12] = biological target: T11, INSR (Homo sapiens, UniProt P06213); assay: Kinase panel, CaNDY 1 µM; type: biochemical; conditions: CaNDY 1 µM relative to DMSO
T11 construct: purchased Carna Biosciences

[13] = biological target: T12, MST1 (Homo sapiens, UniProt Q13043); assay: Kinase panel, CaNDY 1 µM; type: biochemical; conditions: CaNDY 1 µM relative to DMSO
T12 construct: purchased Carna Biosciences

[14] = biological target: T13, pre-accumulated 3xFLAG-DYRK1A (Homo sapiens, UniProt Q13627); assay: Pre-accumulated DYRK1A after cycloheximide, Western blot in HEK293 cells; type: cell-based; conditions: cycloheximide 1 mg/mL pre-treatment, CaNDY 2 µM, 0-24 h
T13 construct: F2A peptide linking to EGFP (2A skipping releases EGFP; a 2A remnant may stay on DYRK1A) (C); expressed in transfected cells; host or cells: HEK293
Protocol: Western blot analysis was performed using the antibodies described above. In brief, total cell lysates were separated by SDS-PAGE (5–20% gels; ATTO, Tokyo, Japan) under reducing conditions and then transferred to a PVDF membrane (PALL, SP, Brazil). Antibody reactions were performed with Can Get Signal® Immunoreaction Enhancer Solution (Toyobo). Peroxidase activities on the membrane were visualized with ECL Western Blotting Detection Reagents (GE Healthcare) or ImmunoStar® LD (Wako Pure Chemical Industries, Osaka, Japan), and a ChemiDoc^TM MP Imaging System (Bio-Rad, Hercules, CA, USA).
as §1
HEK293 cells were transfected with an expression vector for 3xFLAG-DYRK1A. At 48 h after transfection, the cells were pre-treated with 1 mg/mL cycloheximide (CHX) to stop protein synthesis, and then treated with CaNDY (2 µM) for the indicated time (0-24 h). The total cell lysates were subjected to SDS-PAGE followed by Western blot analysis.
as §2

[15] = biological target: T14, NDR2 (Homo sapiens, UniProt Q9Y2H1); assay: Kinase panel, CaNDY 1 µM; type: biochemical; conditions: CaNDY 1 µM relative to DMSO
T14 construct: purchased Carna Biosciences
T14 sequence (Q9Y2H1 whole entry): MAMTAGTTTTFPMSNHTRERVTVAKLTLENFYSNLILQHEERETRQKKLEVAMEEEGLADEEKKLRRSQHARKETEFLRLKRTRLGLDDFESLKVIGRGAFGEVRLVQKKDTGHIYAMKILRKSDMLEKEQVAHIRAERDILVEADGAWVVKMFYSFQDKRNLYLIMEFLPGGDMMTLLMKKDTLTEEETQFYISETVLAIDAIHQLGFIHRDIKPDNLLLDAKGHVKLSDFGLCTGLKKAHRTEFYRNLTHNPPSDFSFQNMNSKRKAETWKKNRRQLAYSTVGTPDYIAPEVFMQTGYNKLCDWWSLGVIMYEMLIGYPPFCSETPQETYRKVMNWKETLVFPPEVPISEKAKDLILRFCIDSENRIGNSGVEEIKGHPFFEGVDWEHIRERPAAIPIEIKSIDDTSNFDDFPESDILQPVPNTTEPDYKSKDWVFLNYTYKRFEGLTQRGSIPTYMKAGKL

[16] = biological target: T15, MLK1_Cascade (Homo sapiens, UniProt P80192); assay: Kinase panel, CaNDY 1 µM; type: biochemical; conditions: CaNDY 1 µM relative to DMSO
T15 construct: purchased Carna Biosciences
T15 sequence (P80192 whole entry): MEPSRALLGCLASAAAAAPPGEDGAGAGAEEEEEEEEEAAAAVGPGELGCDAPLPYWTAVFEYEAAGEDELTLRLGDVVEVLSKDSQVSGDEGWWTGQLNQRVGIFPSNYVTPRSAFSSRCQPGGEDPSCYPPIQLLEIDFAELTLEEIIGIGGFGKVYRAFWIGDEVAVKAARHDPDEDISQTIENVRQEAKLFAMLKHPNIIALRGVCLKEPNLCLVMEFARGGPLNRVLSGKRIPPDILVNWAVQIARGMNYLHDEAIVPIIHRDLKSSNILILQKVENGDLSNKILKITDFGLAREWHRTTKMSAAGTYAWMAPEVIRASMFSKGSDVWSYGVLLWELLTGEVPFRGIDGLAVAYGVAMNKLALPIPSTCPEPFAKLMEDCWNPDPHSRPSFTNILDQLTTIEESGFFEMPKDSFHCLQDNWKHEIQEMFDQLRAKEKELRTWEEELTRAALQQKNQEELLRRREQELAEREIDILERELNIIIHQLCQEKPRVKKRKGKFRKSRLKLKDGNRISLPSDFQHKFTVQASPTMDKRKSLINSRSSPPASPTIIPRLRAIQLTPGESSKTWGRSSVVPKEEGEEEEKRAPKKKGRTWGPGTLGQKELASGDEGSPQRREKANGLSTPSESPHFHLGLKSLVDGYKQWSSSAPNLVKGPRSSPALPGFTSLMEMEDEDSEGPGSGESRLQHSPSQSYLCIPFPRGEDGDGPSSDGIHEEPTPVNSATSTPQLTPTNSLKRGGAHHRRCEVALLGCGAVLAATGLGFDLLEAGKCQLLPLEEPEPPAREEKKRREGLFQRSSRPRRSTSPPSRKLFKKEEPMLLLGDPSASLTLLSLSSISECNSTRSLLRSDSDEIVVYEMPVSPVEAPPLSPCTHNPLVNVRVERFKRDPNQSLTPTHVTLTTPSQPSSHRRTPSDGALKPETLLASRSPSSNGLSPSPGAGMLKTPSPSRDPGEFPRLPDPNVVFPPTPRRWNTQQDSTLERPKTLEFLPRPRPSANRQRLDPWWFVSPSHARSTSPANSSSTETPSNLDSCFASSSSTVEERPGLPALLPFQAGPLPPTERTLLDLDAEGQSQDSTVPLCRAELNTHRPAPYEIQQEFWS

[17] = biological target: T16, PDGFRα(T674I) (Homo sapiens, UniProt P16234, T674I); assay: Kinase panel, CaNDY 1 µM; type: biochemical; conditions: CaNDY 1 µM relative to DMSO
T16 construct: purchased Carna Biosciences
T16 sequence (P16234 24-1089 T674I): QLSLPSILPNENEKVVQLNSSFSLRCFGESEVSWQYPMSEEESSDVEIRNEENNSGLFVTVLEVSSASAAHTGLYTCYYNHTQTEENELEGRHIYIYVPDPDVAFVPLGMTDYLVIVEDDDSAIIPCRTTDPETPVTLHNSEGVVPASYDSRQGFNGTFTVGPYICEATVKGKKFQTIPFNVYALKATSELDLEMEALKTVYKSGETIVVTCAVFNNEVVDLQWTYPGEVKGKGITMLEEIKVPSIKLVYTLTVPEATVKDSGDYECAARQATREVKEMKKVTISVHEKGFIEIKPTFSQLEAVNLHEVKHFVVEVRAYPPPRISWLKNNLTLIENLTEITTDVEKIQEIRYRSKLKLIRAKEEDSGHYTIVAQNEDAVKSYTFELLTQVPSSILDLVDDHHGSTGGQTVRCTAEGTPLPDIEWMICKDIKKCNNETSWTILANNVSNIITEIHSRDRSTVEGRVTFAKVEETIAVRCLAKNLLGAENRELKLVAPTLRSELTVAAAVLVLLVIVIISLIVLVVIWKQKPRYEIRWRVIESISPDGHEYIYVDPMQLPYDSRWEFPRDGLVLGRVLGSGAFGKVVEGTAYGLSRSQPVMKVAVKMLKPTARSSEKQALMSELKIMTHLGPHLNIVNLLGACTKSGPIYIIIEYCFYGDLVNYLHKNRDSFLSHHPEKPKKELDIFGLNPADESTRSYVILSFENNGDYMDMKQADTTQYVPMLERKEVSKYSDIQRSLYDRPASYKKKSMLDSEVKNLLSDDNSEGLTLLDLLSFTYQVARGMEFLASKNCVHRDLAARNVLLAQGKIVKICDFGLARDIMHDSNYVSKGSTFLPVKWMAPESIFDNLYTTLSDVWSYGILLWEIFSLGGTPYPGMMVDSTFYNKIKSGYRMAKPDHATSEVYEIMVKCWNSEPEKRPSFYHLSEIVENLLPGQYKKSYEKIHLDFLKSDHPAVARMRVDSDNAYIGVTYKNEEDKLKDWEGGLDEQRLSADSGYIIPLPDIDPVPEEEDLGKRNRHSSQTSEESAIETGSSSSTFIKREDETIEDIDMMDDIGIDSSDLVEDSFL

[18] = biological target: T17, MAP3K1_Cascade (Homo sapiens, UniProt Q13233); assay: Kinase panel, CaNDY 1 µM; type: biochemical; conditions: CaNDY 1 µM relative to DMSO
T17 construct: purchased Carna Biosciences

[19] = biological target: T18, MAP3K2_Cascade (Homo sapiens, UniProt Q9Y2U5); assay: Kinase panel, CaNDY 1 µM; type: biochemical; conditions: CaNDY 1 µM relative to DMSO
T18 construct: purchased Carna Biosciences
T18 sequence (Q9Y2U5 whole entry): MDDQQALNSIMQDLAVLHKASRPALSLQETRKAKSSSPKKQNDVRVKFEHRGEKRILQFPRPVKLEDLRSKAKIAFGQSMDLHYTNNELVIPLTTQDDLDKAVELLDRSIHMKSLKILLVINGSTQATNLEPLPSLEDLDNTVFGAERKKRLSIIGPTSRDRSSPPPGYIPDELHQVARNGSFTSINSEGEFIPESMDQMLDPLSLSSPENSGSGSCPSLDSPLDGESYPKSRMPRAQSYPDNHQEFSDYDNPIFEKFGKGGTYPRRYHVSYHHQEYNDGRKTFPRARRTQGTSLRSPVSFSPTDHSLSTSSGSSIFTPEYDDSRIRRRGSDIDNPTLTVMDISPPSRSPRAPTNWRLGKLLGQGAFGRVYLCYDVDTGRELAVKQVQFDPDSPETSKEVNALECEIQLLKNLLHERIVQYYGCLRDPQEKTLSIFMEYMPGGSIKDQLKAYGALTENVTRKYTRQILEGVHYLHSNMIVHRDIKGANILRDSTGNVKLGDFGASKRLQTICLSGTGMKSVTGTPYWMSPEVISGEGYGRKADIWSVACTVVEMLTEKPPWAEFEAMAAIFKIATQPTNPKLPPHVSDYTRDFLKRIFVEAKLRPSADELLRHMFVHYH

[20] = biological target: T19, MAP2K7_Cascade (Homo sapiens, UniProt O14733); assay: Kinase panel, CaNDY 1 µM; type: biochemical; conditions: CaNDY 1 µM relative to DMSO
T19 construct: purchased Carna Biosciences
T19 sequence (O14733 whole entry): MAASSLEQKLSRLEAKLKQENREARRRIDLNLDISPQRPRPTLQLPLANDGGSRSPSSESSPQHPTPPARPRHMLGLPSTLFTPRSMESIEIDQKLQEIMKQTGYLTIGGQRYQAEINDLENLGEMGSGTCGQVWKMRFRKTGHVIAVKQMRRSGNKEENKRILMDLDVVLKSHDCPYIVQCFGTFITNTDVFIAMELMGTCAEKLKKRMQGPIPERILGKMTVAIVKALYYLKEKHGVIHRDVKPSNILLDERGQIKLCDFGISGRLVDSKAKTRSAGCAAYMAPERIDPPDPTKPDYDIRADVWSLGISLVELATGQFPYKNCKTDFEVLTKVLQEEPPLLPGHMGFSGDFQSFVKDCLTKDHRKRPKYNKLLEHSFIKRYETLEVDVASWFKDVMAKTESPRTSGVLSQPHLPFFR

[21] = biological target: T20, CLK2 (Homo sapiens, UniProt P49760); assay: Kinase panel, CaNDY 1 µM; type: biochemical
T20 construct: purchased Carna Biosciences
T20 sequence (P49760 whole entry): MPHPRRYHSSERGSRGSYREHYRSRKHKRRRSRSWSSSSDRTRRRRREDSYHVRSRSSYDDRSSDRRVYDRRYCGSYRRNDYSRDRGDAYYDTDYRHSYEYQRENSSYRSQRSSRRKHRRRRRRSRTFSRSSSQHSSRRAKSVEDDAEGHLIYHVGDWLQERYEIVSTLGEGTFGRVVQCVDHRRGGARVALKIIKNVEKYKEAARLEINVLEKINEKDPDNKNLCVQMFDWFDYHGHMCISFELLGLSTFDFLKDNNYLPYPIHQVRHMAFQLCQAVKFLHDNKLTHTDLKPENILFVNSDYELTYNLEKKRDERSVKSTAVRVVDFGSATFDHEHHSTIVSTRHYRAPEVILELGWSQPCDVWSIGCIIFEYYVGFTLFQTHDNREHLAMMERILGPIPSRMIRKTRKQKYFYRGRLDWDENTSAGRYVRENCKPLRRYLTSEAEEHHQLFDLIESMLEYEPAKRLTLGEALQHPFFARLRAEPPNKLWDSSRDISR

[22] = biological target: T21, TRKC (Homo sapiens, UniProt Q16288); assay: Kinase panel, CaNDY 1 µM; type: biochemical; conditions: CaNDY 1 µM relative to DMSO
T21 construct: purchased Carna Biosciences

Structure (SMILES): [H]/N=C1/NC(=O)C(=Cc2ccc3c(c2)CCO3)S1 [CaNDY, (Z)-5-[(2,3-dihydrobenzofuran-5-yl)methylene]-2-iminothiazolidin-4-one]
- remaining activity at 1 µM [1]: 101%
- expression of mRNA coding for DYRK1A [2]: slightly decreased
- remaining activity at 1 µM [3]: 88.9%
- remaining activity at 1 µM [4]: 88%
- remaining activity at 1 µM [5]: 101%
- remaining activity at 1 µM [6]: 105%
- remaining activity at 1 µM [7]: 90.3%
- remaining activity at 1 µM [8]: 76.6%
- remaining activity at 1 µM [9]: 99.5%
- remaining activity at 1 µM [10]: 103%
- remaining activity at 1 µM [11]: 124%
- remaining activity at 1 µM [12]: 103%
- %Activity [13]: 101.2%
- pre-accumulated DYRK1A level [14]: did not decrease pre-accumulated DYRK1A
- remaining activity at 1 µM [15]: 91.9%
- remaining activity at 1 µM [16]: 99.9%
- remaining activity at 1 µM [17]: 94%
- remaining activity at 1 µM [18]: 99%
- remaining activity at 1 µM [19]: 102%
- %Activity [20]: 101.7%
- inhibition at 1 µM ([21]; 1 μM CaNDY, read-out: percentage inhibition): > 90%
- %Activity ([21]; CaNDY 1 µM relative to DMSO): 9.0%
- remaining activity at 1 µM [22]: 101%
